Experimental findings from patent publication US4656166A, “Antibiotic compounds derived from cephalosporins, process for their production and pharmaceutical compositions” (Sanofi, priority 1983, dated 1987) are described below.

In brackets after ≈: the same amount, converted by molar mass. Where two headings read alike, the source gives them in different places.

Common to all, as to format: cell-based
Test [1] concerns Serrtia liquefaciens SL/326 A. Briefly: MIC on beta-lactamase producing strain Serratia liquefaciens SL/326 A (Table IV). How it is done: (§1) To evaluate the stability of these products towards beta-lactamases, their MIC was determined on isogenic strains producing and not producing beta-lactamases.
(§2) The results are expressed in μg/ml in Table IV.

In the next test the test system is Klebsiella RO 30. Briefly: MIC, in vitro dilution method, Klebsiella RO 30 (Table III). The note with it: RO30. In short, it runs like this:
(§3)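 Dilution-method MIC, in vitro, μg/ml.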

The subject of a further test is Citrobacter RL 49. Briefly: MIC, in vitro dilution method, Citrobacter RL 49 (Table III). The note with it: RL49. The procedure, abridged:
as §3

For the next test, the system named is Serratia RL 72. In words: MIC, in vitro dilution method, Serratia RL 72 (Table III). Conditions: RL72. The procedure, abridged:
as §3

The next test concerns Escherichia coli 255/L.7. Briefly: MIC on strain not producing beta-lactamase, Escherichia coli 255/L.7 (Table IV). The note with it: Escherichia coli 255/L.7 *, not producing beta-lactamases; read-out: MIC. As to the method: as §1, §2
The test system of another test is Pseudomonas RL 112. In words: MIC, in vitro dilution method, Pseudomonas RL 112 (Table III). Conditions: RL112. The procedure, abridged: as §3
In the next test the test system is Escherichia coli 255. Briefly: MIC on beta-lactamase producing strain Escherichia coli 255 (Table IV). The note with it: Escherichia coli 255, producing beta-lactamases; read-out: MIC. How it is done: as §1, §2
Test [2] has as its system Proteus vulgaris GN 76/C.1/3. In words: MIC on strain not producing beta-lactamase, Proteus vulgaris GN 76/C.1/3 (Table IV). Conditions: GN76, not producing beta-lactamases. As to the method: as §1, §2
Test [3] deals with Proteus vulgaris GN 76/C.1. Briefly: MIC on beta-lactamase producing strain Proteus vulgaris GN 76/C.1 (Table IV). The note with it: GN76. As to the method:
as §1, §2

For the next test, the system named is Escherichia coli SOL 90. Briefly: MIC, in vitro dilution method, Escherichia coli SOL 90 (Table III). The note with it: SOL90. The procedure, abridged:
as §3

Test [4] concerns Serrtia liquefaciens SL 1326 S. In words: MIC on strain not producing beta-lactamase, Serratia liquefaciens SL 1326 S (Table IV). Conditions: SL1326S, not producing beta-lactamases. How it is done:
as §1, §2

A further test relates to Enterobacter RO 154. In words: MIC, in vitro dilution method, Enterobacter RO 154 (Table III). The note with it: RO154. In short, it runs like this:
as §3

The subject of test [5] is Proteus vulgaris RL 99 bis. Briefly: MIC, in vitro dilution method, Proteus vulgaris RL 99 bis (Table III). Conditions: RL99BIS. The procedure, abridged: as §3
Where [6] appears, read: Klebsiella RO 30, dilution method, read-out: MIC.
Setting [7] is: Citrobacter RL 49, dilution method, read-out: MIC.
Where [8] appears, read: Escherichia coli SOL 90, dilution method, read-out: MIC.
The mark [9] stands for this setting: Enterobacter RO 154, dilution method, read-out: MIC.
[10] abbreviates: Proteus vulgaris GN 76/C.1, producing beta-lactamases, read-out: MIC.
Where [11] appears, read: Proteus vulgaris RL 99 bis, dilution method, read-out: MIC.

On to `CNCc1ccc(C(=O)SCC2=C(C(=O)O)N3C(=O)C(NC(=O)C(=NOC(C)(C)C(=O)O)c4csc(N)n4)C3[S+]([O-])C2)cc1` (stereo not shown) [compound 42533], for which the MIC (commonly the least concentration at which growth counts as inhibited) in test [1] was found to be 0.125 µg/mL (≈ 0.188 µM); in the test with Klebsiella RO 30 (setting [6]) it was 0.25 µg/mL (≈ 0.376 µM); with Citrobacter RL 49 (setting [7]) it was 0.25 µg/mL (≈ 0.376 µM); with Serratia RL 72, 1 µg/mL (≈ 1.5 µM); with Escherichia coli 255/L.7 it was 0.0625 µg/mL (≈ 0.094 µM); against Pseudomonas RL 112, 8 µg/mL (≈ 12 µM). The MIC in the test with Escherichia coli 255 is 0.125 µg/mL (≈ 0.188 µM); in [2], 0.125 µg/mL (≈ 0.188 µM); in test [3] (Proteus vulgaris) it was 0.0625 µg/mL (≈ 0.094 µM); with Escherichia coli SOL 90 (setting [8]) it was 0.5 µg/mL (≈ 0.752 µM); in test [4] it was at most 0.0312 µg/mL; in the test on Enterobacter RO 154 (setting [9]), 0.5 µg/mL (≈ 0.752 µM). In addition, the MIC in [5] (Proteus vulgaris) was at most 0.125 µg/mL.
On to `CC(C)(ON=C(C(=O)NC1C(=O)N2C(C(=O)O)=C(CSC(=O)c3cccc(CN)c3)C[S+]([O-])C12)c1csc(N)n1)C(=O)O` (stereo not shown) [compound 42531], for which the MIC worked out at 0.125 µg/mL (≈ 0.192 µM) in test [1]; 0.25 µg/mL (≈ 0.384 µM) in the test with Klebsiella RO 30 (setting [6]); 0.25 µg/mL (≈ 0.384 µM) in the test on Citrobacter RL 49 (setting [7]); 0.5 µg/mL (≈ 0.768 µM) in the test with Serratia RL 72; 0.0625 µg/mL (≈ 0.096 µM) in the test with Escherichia coli 255/L.7; 8 µg/mL (≈ 12.3 µM) against Pseudomonas RL 112. Also, the MIC with Escherichia coli 255 was 0.125 µg/mL (≈ 0.192 µM); in test [3] (Proteus vulgaris) it was 0.0625 µg/mL (≈ 0.096 µM); in the test on Escherichia coli SOL 90 (setting [8]), 0.5 µg/mL (≈ 0.768 µM); in [4], 0.0625 µg/mL (≈ 0.096 µM); in the test with Enterobacter RO 154 (setting [9]), 0.5 µg/mL (≈ 0.768 µM); in test [5] (Proteus vulgaris), at most 0.125 µg/mL.
For `CNCc1ccc(C(=O)OCC2=C(C(=O)O)N3C(=O)C(NC(=O)/C(=N\OC(C)(C)C(=O)O)c4csc(N)n4)C3[S+]([O-])C2)cc1` (stereo not shown) [42 395], the MIC in test [1] was 0.125 µg/mL (≈ 0.193 µM); with Klebsiella RO 30 (Klebsiella), at most 0.125 µg/mL; with Citrobacter RL 49 (Citrobacter), at most 0.125 µg/mL; against Serratia RL 72, 0.5 µg/mL (≈ 0.771 µM); in the test on Escherichia coli 255/L.7 it was 0.0625 µg/mL (≈ 0.0964 µM); in the test on Pseudomonas RL 112 it was 4 µg/mL (≈ 6.17 µM). Besides, the minimal inhibitory concentration (MIC) is 0.0625 µg/mL (≈ 0.0964 µM) in the test on Escherichia coli 255; at most 0.0312 µg/mL in test [2]; at most 0.0312 µg/mL in test [3] (Proteus vulgaris); at most 0.125 µg/mL against Escherichia coli SOL 90 (Escherichia coli); at most 0.0312 µg/mL in test [4]; at most 0.125 µg/mL with Enterobacter RO 154 (Enterobacter). The MIC in [5] (Proteus vulgaris) is at most 0.125 µg/mL.
As to `CC(C)(ON=C(C(=O)NC1C(=O)N2C(C(=O)O)=C(COC(=O)c3ccc(NC(=O)CCN)cc3)C[S+]([O-])C12)c1csc(N)n1)C(=O)O` (stereo not shown) [42 546], the MIC is 0.25 µg/mL (≈ 0.361 µM) in test [1]; 0.25 µg/mL (≈ 0.361 µM) in the test on Klebsiella RO 30 (setting [6]); 0.25 µg/mL (≈ 0.361 µM) in the test with Citrobacter RL 49 (setting [7]); 1 µg/mL (≈ 1.45 µM) in the test on Serratia RL 72; at most 0.0312 µg/mL with Escherichia coli 255/L.7; 4 µg/mL (≈ 5.78 µM) against Pseudomonas RL 112. Moreover, the MIC was 0.0625 µg/mL (≈ 0.0904 µM) in the test on Escherichia coli 255; 0.125 µg/mL (≈ 0.181 µM) in test [2]; at most 0.0312 µg/mL in test [3] (Proteus vulgaris); 0.25 µg/mL (≈ 0.361 µM) in the test on Escherichia coli SOL 90 (setting [8]); at most 0.0312 µg/mL in test [4]; 0.25 µg/mL (≈ 0.361 µM) in the test with Enterobacter RO 154 (setting [9]). Moreover, the MIC in [5] (Proteus vulgaris) was at most 0.125 µg/mL.
Turning to `NCC(=O)Nc1nc(C(=O)OCC2=C(C(=O)O)N3C(=O)C(NC(=O)C(=NOC4(C(=O)O)CCC4)c4csc(N)n4)C3[S+]([O-])C2)cs1` (stereo not shown) [42 547], the MIC in test [1] is 2 µg/mL (≈ 2.87 µM); in the test on Klebsiella RO 30 (setting [6]), 0.25 µg/mL (≈ 0.359 µM); in the test on Citrobacter RL 49 (setting [7]), 0.25 µg/mL (≈ 0.359 µM); against Serratia RL 72 it was 0.5 µg/mL (≈ 0.718 µM); in the test on Escherichia coli 255/L.7, at most 0.0312 µg/mL; against Pseudomonas RL 112 it was 4 µg/mL (≈ 5.74 µM). Further, the minimal inhibitory concentration (MIC) in the test on Escherichia coli 255 is 0.125 µg/mL (≈ 0.179 µM); in test [2], 0.25 µg/mL (≈ 0.359 µM); in test [3] (setting [10]), 0.0625 µg/mL (≈ 0.0897 µM); in the test on Escherichia coli SOL 90 (setting [8]), 0.5 µg/mL (≈ 0.718 µM); in test [4], 0.125 µg/mL (≈ 0.179 µM); in the test with Enterobacter RO 154 (setting [9]) it was 0.5 µg/mL (≈ 0.718 µM). In test [5] (Proteus vulgaris), this compound yielded an MIC of at most 0.125 µg/mL.
For the compound `CNCCCC(=O)OCC1=C(C(=O)O)N2C(=O)C(NC(=O)/C(=N\OC(C)(C)C(=O)O)c3csc(N)n3)C2[S+]([O-])C1` (stereo not shown) [42 028], the minimal inhibitory concentration (MIC) in [1] was determined as 0.12 µg/mL (≈ 0.2 µM); with Klebsiella RO 30 (setting [6]), 0.25 µg/mL (≈ 0.416 µM); in the test with Citrobacter RL 49 (setting [7]), 0.5 µg/mL (≈ 0.832 µM); against Serratia RL 72, 0.5 µg/mL (≈ 0.832 µM); in the test with Escherichia coli 255/L.7 it was 0.12 µg/mL (≈ 0.2 µM); in the test on Pseudomonas RL 112, 4 µg/mL (≈ 6.66 µM). Further, the MIC in the test with Escherichia coli 255 was 0.12 µg/mL (≈ 0.2 µM); in [3] (setting [10]), 0.25 µg/mL (≈ 0.416 µM); in the test with Escherichia coli SOL 90 (setting [8]), 0.25 µg/mL (≈ 0.416 µM); in test [4], at most 0.06 µg/mL; with Enterobacter RO 154 (setting [9]), 2 µg/mL (≈ 3.33 µM); in test [5] (setting [11]) it was at most 0.12 µg/mL.
Turning to `CC(C)(ON=C(C(=O)NC1C(=O)N2C(C(=O)O)=C(CSC(=O)C3CCC(CN)CC3)C[S+]([O-])C12)c1csc(N)n1)C(=O)O` (stereo not shown) [compound 42118], the MIC in test [1] was 0.25 µg/mL (≈ 0.381 µM); with Klebsiella RO 30 (setting [6]) it was 0.5 µg/mL (≈ 0.761 µM); in the test with Citrobacter RL 49 (setting [7]), 0.5 µg/mL (≈ 0.761 µM); with Serratia RL 72, 4 µg/mL (≈ 6.09 µM); in the test on Escherichia coli 255/L.7 it was 0.25 µg/mL (≈ 0.381 µM); against Pseudomonas RL 112 it was 8 µg/mL (≈ 12.2 µM). The MIC in the test with Escherichia coli 255 came to 0.5 µg/mL (≈ 0.761 µM); in [3] (setting [10]) it was 0.5 µg/mL (≈ 0.761 µM); with Escherichia coli SOL 90 (setting [8]), 1 µg/mL (≈ 1.52 µM); in test [4], 0.12 µg/mL (≈ 0.183 µM); in the test on Enterobacter RO 154 (setting [9]), 16 µg/mL (≈ 24.4 µM); in [5] (setting [11]), 0.25 µg/mL (≈ 0.381 µM).
